Experimental data reported in patent US20240376094A2, “SELECTIVE BCL-XL PROTAC COMPOUNDS AND METHODS OF USE” (Les Laboratoires Servier, priority 2021, published 2024).

Assays:
Assay type in all cases: cell-based
MOLT-4 cells = assay: MOLT-4 cell viability, CTG assay; conditions: Homo sapiens, MOLT-4, 48 h
Procedure, shortened: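 Cells grown in RPMI 1640 with 10% FBS at 37° C, 5% CO2, then exposed to compounds for 48 h (11-point 5-fold dilution, triplicates). ATP measured by CellTiter-Glo luminescence; IC50 from four-parameter fit versus control, mean of ≥2 independent experiments.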

HiBiT-tagged BCL-xL = target: T1, HiBiT-tagged BCL-xL (Homo sapiens, UniProt Q07817); assay: NCI-H1650 BCL-xL protein levels, Nano-Glo HiBiT Lytic Detection; conditions: NCI-H1650 expressing HiBiT-tagged BCL-xL, overnight incubation, read-out: Bcl-xl HIBIT NCIH1650 DC50
T1 construct: expressed in transfected cells; host or cells: NCI-H1650 (ATCC No. CRL-5883), engineered HiBiT cell line
Procedure, shortened: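 NCI-H1650 cells expressing HiBiT-tagged BCL-xL (5000/well) were treated overnight at 37° C with 10 concentrations, final 0.508 nM-10 μM, in triplicate. Remaining BCL-xL measured by Nano-Glo HiBiT lytic luminescence, normalized to untreated cells; 50% values by four-parameter logistic fit.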

Bcl-xL = target: T2, Bcl-xL (Homo sapiens, UniProt Q07817); assay: HCT116 Bcl-xL degradation, capillary-based immunoassay (WES); conditions: HCT116, 24 h, 9-point serial dilution
T2 construct: Measured levels of Bcl-xL protein of HCT116 cells treated with the tested compounds; host or cells: HCT116
Procedure, shortened: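 HCT116 cells treated 24 h with compound at 10/100 nM and/or 9-point dilution (quadruplicates), then lysed. Bcl-xL measured by capillary WES immunoassay, normalized to cofilin and expressed as % of untreated cells. DC50 from four-parameter curve fit.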

[1] = tested on: EBC-1 lung cancer cell line; assay: EBC-1 cell proliferation, CellTiter-Glo assay; conditions: Homo sapiens, 120 h; Ebc-1 cell viability, CTG assay, 5 days of treatment; read-out: CTG 5 day Ebc1 GI50
Procedure, shortened: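 EBC-1 cells seeded at 1000 per well overnight, then exposed to 10-point dilutions (0.508 nM–10 μM final) for 5 days at 37 °C, in triplicate. ATP luminescence by CellTiter-Glo, normalised to untreated wells; GI50 from four-parameter logistic fit, runs valid only with at least one doubling.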

T2 sequence (Q07817 whole entry): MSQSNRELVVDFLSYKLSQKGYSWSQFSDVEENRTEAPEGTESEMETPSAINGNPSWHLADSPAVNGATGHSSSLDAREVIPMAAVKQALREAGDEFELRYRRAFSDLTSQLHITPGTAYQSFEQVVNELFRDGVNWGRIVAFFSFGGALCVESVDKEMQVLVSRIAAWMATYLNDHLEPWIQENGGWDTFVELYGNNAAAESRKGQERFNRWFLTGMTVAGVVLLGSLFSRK
T1 sequence (Q07817 whole entry): as above

SMILES | IC50 (MOLT-4 cells) | DC50 (HiBiT-tagged BCL-xL) | DC50 (Bcl-xL) | GI50 [1]
Cc1ncsc1-c1ccc([C@H](C)NC(=O)[C@@H]2C[C@@H](O)CN2C(=O)[C@@H](NC(=O)CCCCNC(=O)c2nc(N3CCCc4c3nnc(Nc3nc5ccccc5s3)c4C)ccc2-c2cnn(CC34CC5(C)CC(C)(C3)CC(OCCN3CCCC3)(C5)C4)c2C)C(C)(C)C)cc1 [Example 122, 6-[3-(1,3-benzothiazol-2-ylamino)-4-methyl-6,7-dihydro-5H-pyrido[2,3-c]pyridazin-8-yl]-3-[1-[[3,5-dimethyl-7-(2-pyrrolidin-1-ylethoxy)-1-adamantyl]methyl]-5-methyl-pyrazol-4-yl]-N-[5-[[(1S)-1-[(2S,4R)-4-hydroxy-2-[[(1S)-1-[4-(4-methylthiazol-5-yl)phenyl]ethyl]carbamoyl]pyrrolidine-1-carbonyl]-2,2-dimethyl-propyl]amino]-5-oxo-pentyl]pyridine-2-carboxamide] | 4.6 nM | > 1670 nM | > 316 nM | 46 nM
Cc1ncsc1-c1ccc([C@H](C)NC(=O)[C@@H]2C[C@@H](O)CN2C(=O)[C@@H](NC(=O)CCCCCCCCCN2CCN(CC#Cc3ccc(OCCCc4sc(N5CCCc6c5nnc(Nc5nc7ccccc7s5)c6C)nc4C(=O)O)c(F)c3)CC2)C(C)(C)C)cc1 [Example 134, 2-[3-(1,3-benzothiazol-2-ylamino)-4-methyl-6,7-dihydro-5H-pyrido[2,3-c]pyridazin-8-yl]-5-[3-[2-fluoro-4-[3-[4-[10-[[(1S)-1-[(2S,4R)-4-hydroxy-2-[[(1S)-1-[4-(4-methylthiazol-5-yl)phenyl]ethyl]carbamoyl]pyrrolidine-1-carbonyl]-2,2-dimethyl-propyl]amino]-10-oxo-decyl]piperazin-1-yl]prop-1-ynyl]phenoxy]propyl]thiazole-4-carboxylic acid] | 7.19 nM | 1 nM | 0.564 nM | 2 nM
Cc1ncsc1-c1ccc([C@H](C)NC(=O)[C@@H]2C[C@@H](O)CN2C(=O)[C@@H](NC(=O)CCCCCCNC(=O)c2nc(N3CCCc4c3nnc(Nc3nc5ccccc5s3)c4C)ccc2-c2cnn(CC34CC5(C)CC(C)(C3)CC(OCCN3CCCC3)(C5)C4)c2C)C(C)(C)C)cc1 [Example 120, 6-[3-(1,3-benzothiazol-2-ylamino)-4-methyl-6,7-dihydro-5H-pyrido[2,3-c]pyridazin-8-yl]-3-[1-[[3,5-dimethyl-7-(2-pyrrolidin-1-ylethoxy)-1-adamantyl]methyl]-5-methyl-pyrazol-4-yl]-N-[7-[[(1S)-1-[(2S,4R)-4-hydroxy-2-[[(1S)-1-[4-(4-methylthiazol-5-yl)phenyl]ethyl]carbamoyl]pyrrolidine-1-carbonyl]-2,2-dimethyl-propyl]amino]-7-oxo-heptyl]pyridine-2-carboxamide] | 7.29 nM | 1 nM | 1.68 nM | 119 nM
Cc1ncsc1-c1ccc([C@H](C)NC(=O)[C@@H]2C[C@@H](O)CN2C(=O)[C@@H](NC(=O)CCCCCCCNC(=O)c2nc(N3CCCc4c3nnc(Nc3nc5ccccc5s3)c4C)ccc2-c2cnn(CC34CC5(C)CC(C)(C3)CC(OCCN3CCCC3)(C5)C4)c2C)C(C)(C)C)cc1 [Example 129, 6-[3-(1,3-benzothiazol-2-ylamino)-4-methyl-6,7-dihydro-5H-pyrido[2,3-c]pyridazin-8-yl]-3-[1-[[3,5-dimethyl-7-(2-pyrrolidin-1-ylethoxy)-1-adamantyl]methyl]-5-methyl-pyrazol-4-yl]-N-[8-[[(1S)-1-[(2S,4R)-4-hydroxy-2-[[(1S)-1-[4-(4-methylthiazol-5-yl)phenyl]ethyl]carbamoyl]pyrrolidine-1-carbonyl]-2,2-dimethyl-propyl]amino]-8-oxo-octyl]pyridine-2-carboxamide] | 5.3 nM | 1 nM | 7.34 nM | 3 nM
Cc1ncsc1-c1ccc(CNC(=O)[C@@H]2C[C@@H](O)CN2C(=O)[C@@H](NC(=O)C2(F)CC2)C(C)(C)SCCCCCCCCCCN(C)CCOC23CC4(C)CC(C)(CC(Cn5ncc(-c6ccc(N7CCCc8c7nnc(Nc7nc9ccccc9s7)c8C)nc6C(=O)O)c5C)(C4)C2)C3)cc1 [Example 94, 6-[3-(1,3-benzothiazol-2-ylamino)-4-methyl-6,7-dihydro-5H-pyrido[2,3-c]pyridazin-8-yl]-3-[1-[[3-[2-[10-[(2R)-2-[(1-fluorocyclopropanecarbonyl)amino]-3-[(2S,4R)-4-hydroxy-2-[[4-(4-methylthiazol-5-yl)phenyl]methylcarbamoyl]pyrrolidin-1-yl]-1,1-dimethyl-3-oxo-propyl]sulfanyldecyl-methyl-amino]ethoxy]-5,7-dimethyl-1-adamantyl]methyl]-5-methyl-pyrazol-4-yl]pyridine-2-carboxylic acid] | 14.4 nM | > 1670 nM | 1.06 nM | 112 nM
Cc1cc(N(CCCCN(C)C(=O)CCCCCCCCCOc2cccc3c2C(=O)N(C2CCC(=O)NC2=O)C3=O)c2ccc(-c3cnn(CC45CC6(C)CC(C)(C4)CC(OCCN(C)C)(C6)C5)c3C)c(C(=O)O)n2)nnc1Nc1nc2ccccc2s1 (stereo not drawn) [Example 95, 6-[[6-(1,3-benzothiazol-2-ylamino)-5-methyl-pyridazin-3-yl]-[4-[10-[2-(2,6-dioxo-3-piperidyl)-1,3-dioxo-isoindolin-4-yl]oxydecanoyl-methyl-amino]butyl]amino]-3-[1-[[3-[2-(dimethylamino)ethoxy]-5,7-dimethyl-1-adamantyl]methyl]-5-methyl-pyrazol-4-yl]pyridine-2-carboxylic acid] | 5.77 nM | > 1670 nM | 2.85 nM | 2660 nM
Cc1cc(N(CCCCN(C)C(=O)CCCCCCCCCCCC(=O)N[C@H](C(=O)N2C[C@H](O)C[C@H]2C(=O)N[C@@H](C)c2ccc(-c3scnc3C)cc2)C(C)(C)C)c2ccc(-c3cnn(C[C@]45C[C@]6(C)C[C@](C)(C4)C[C@@](OCCN(C)C)(C6)C5)c3C)c(C(=O)O)n2)nnc1Nc1nc2ccccc2s1 [Example 121, 6-[[6-(1,3-benzothiazol-2-ylamino)-5-methyl-pyridazin-3-yl]-[4-[[13-[[(1S)-1-[(2S,4R)-4-hydroxy-2-[[(1S)-1-[4-(4-methylthiazol-5-yl)phenyl]ethyl]carbamoyl]pyrrolidine-1-carbonyl]-2,2-dimethyl-propyl]amino]-13-oxo-tridecanoyl]-methyl-amino]butyl]amino]-3-[1-[[3-[2-(dimethylamino)ethoxy]-5,7-dimethyl-1-adamantyl]methyl]-5-methyl-pyrazol-4-yl]pyridine-2-carboxylic acid] | 9.99 nM | 1 nM | 2.57 nM | 190 nM
Cc1ncsc1-c1ccc(CNC(=O)[C@@H]2C[C@@H](O)CN2C(=O)[C@@H](NC(=O)C2(F)CC2)C(C)(C)SCCCCCCCCCCCCN(C)CCOC23CC4(C)CC(C)(CC(Cn5ncc(-c6ccc(N7CCCc8c7nnc(Nc7nc9ccccc9s7)c8C)nc6C(=O)O)c5C)(C4)C2)C3)cc1 [Example 79, 6-[3-(1,3-benzothiazol-2-ylamino)-4-methyl-6,7-dihydro-5H-pyrido[2,3-c]pyridazin-8-yl]-3-[1-[[3-[2-[12-[(2R)-2-[(1-fluorocyclopropanecarbonyl)amino]-3-[(2S,4R)-4-hydroxy-2-[[4-(4-methylthiazol-5-yl)phenyl]methylcarbamoyl]pyrrolidin-1-yl]-1,1-dimethyl-3-oxo-propyl]sulfanyldodecyl-methyl-amino]ethoxy]-5,7-dimethyl-1-adamantyl]methyl]-5-methyl-pyrazol-4-yl]pyridine-2-carboxylic acid] | 6.06 nM | > 1670 nM | 0.399 nM | 66 nM
Cc1cc(N(CCCCN(C)C(=O)CCCCCCCCCC(=O)N[C@H](C(=O)N2C[C@H](O)C[C@H]2C(=O)N[C@@H](C)c2ccc(-c3scnc3C)cc2)C(C)(C)C)c2ccc(-c3cnn(CC45CC6(C)CC(C)(C4)CC(OCCN(C)C)(C6)C5)c3C)c(C(=O)O)n2)nnc1Nc1nc2ccccc2s1 [Example 114, 6-[[6-(1,3-benzothiazol-2-ylamino)-5-methyl-pyridazin-3-yl]-[4-[[11-[[(1S)-1-[(2S,4R)-4-hydroxy-2-[[(1S)-1-[4-(4-methylthiazol-5-yl)phenyl]ethyl]carbamoyl]pyrrolidine-1-carbonyl]-2,2-dimethyl-propyl]amino]-11-oxo-undecanoyl]-methyl-amino]butyl]amino]-3-[1-[[3-[2-(dimethylamino)ethoxy]-5,7-dimethyl-1-adamantyl]methyl]-5-methyl-pyrazol-4-yl]pyridine-2-carboxylic acid] | 24.8 nM | 1 nM | 2.67 nM | 1720 nM
